{"source": "ChEMBL document CHEMBL1201862", "about": "“PubChem BioAssay data set” (2004)", "experiment_in_all_cases": "NCI anticancer screen, dose series, 48 h", "key": {"A549": {"tested_on": "A549"}, "ACHN": {"tested_on": "ACHN"}, "CAKI-1": {"tested_on": "CAKI-1"}, "COLO 205": {"tested_on": "COLO 205"}, "DU-145": {"tested_on": "DU-145"}, "HCT-15": {"tested_on": "HCT-15"}, "HL-60": {"tested_on": "HL-60"}, "HOP-62": {"tested_on": "HOP-62"}, "HOP-92": {"tested_on": "HOP-92"}, "Hs-578T": {"tested_on": "Hs-578T"}, "IGROV-1": {"tested_on": "IGROV-1"}, "LOX IMVI": {"tested_on": "LOX IMVI"}, "MDA-N": {"tested_on": "MDA-N"}, "NCI-H23": {"tested_on": "NCI-H23"}, "RXF 393": {"tested_on": "RXF 393"}, "SF-539": {"tested_on": "SF-539"}, "SNB-19": {"tested_on": "SNB-19"}, "SR": {"tested_on": "SR"}, "TK-10": {"tested_on": "TK-10"}, "UO-31": {"tested_on": "UO-31"}}, "note": "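Cultured in 96-well plates, cells were exposed to test compound for 48 hours across five concentrations. GI50: concentration for 50% inhibition of growth.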 Calls of active or inactive are those of the source. Rule as the data show it: active = GI50 up to about 1.1 µM and inactive = higher."}
{"molecule": "Cc1cc(C)c2c(O)cc(-c3ccc(Cl)cc3)nc2n1", "values": [{"measurement": "GI50", "setting": "A549", "result": "30.6 µM (inactive)"}, {"measurement": "GI50", "setting": "ACHN", "result": "48 µM (inactive)"}, {"measurement": "GI50", "setting": "CAKI-1", "result": "37.4 µM (inactive)"}, {"measurement": "GI50", "setting": "COLO 205", "result": "24.7 µM (inactive)"}, {"measurement": "GI50", "setting": "DU-145", "result": "54.1 µM (inactive)"}, {"measurement": "GI50", "setting": "HCT-15", "result": 21.9, "unit": "µM"}, {"measurement": "GI50", "setting": "HL-60", "result": "23.1 µM (inactive)"}, {"measurement": "GI50", "setting": "HOP-62", "result": "44.8 µM (inactive)"}, {"measurement": "GI50", "setting": "HOP-92", "result": "9.27 µM (inactive)"}, {"measurement": "GI50", "setting": "Hs-578T", "result": "> 100 µM (inactive)"}, {"measurement": "GI50", "setting": "IGROV-1", "result": "27.4 µM (inactive)"}, {"measurement": "GI50", "setting": "LOX IMVI", "result": "35.5 µM (inactive)"}, {"measurement": "GI50", "setting": "MDA-N", "result": "7.11 µM (inactive)"}, {"measurement": "GI50", "setting": "NCI-H23", "result": "75 µM (inactive)"}, {"measurement": "GI50", "setting": "RXF 393", "result": "43.7 µM (inactive)"}, {"measurement": "GI50", "setting": "SF-539", "result": "> 100 µM (inactive)"}, {"measurement": "GI50", "setting": "SNB-19", "result": "94 µM (inactive)"}, {"measurement": "GI50", "setting": "SR", "result": "37.6 µM (inactive)"}, {"measurement": "GI50", "setting": "TK-10", "result": "> 100 µM (inactive)"}, {"measurement": "GI50", "setting": "UO-31", "result": "41.8 µM (inactive)"}]}
